{"source": "paper PMC7413516", "about": "“Antidepressant-like activity and safety profile evaluation of 1H-imidazo[2,1-f]purine-2,4(3H,8H)-dione derivatives as 5-HT1A receptor partial agonists” (PLoS ONE, 2020)", "test": "Pharmacokinetic study in mice, plasma and brain structures, LC/MS/MS", "assay_type": "in vivo, Swiss albino mice", "conditions": "0.625 mg/kg i.p.; for Kp: ratio of AUC values", "protocol": "Blood samples from the Swiss albino mice were collected at 0 (pre-dose), 5, 15, 30, 60, 120, 240 and 480 min after a compound administration. The blood samples and brain structures were collected under general anesthesia induced by i.p. injection of 50 mg/kg ketamine plus 8 mg/kg xylazine. The blood samples were taken into heparinized tubes, immediately centrifuged at 1000 × g for 10 min, and plasma was collected. The plasma samples and brain structures were immediately frozen at -30°C and -80°C, respectively.\nThe plasma and tissue sample pretreatment procedure involved acetonitrile precipitation. A 5 μL aliquot of the IS working solution (100 ng/mL) was added to 50 μL of the collected mouse plasma sample, which was then vortex-mixed for 10 seconds. Thereafter, 200 μL of acetonitrile was added, vortexed during 20 min, and then centrifuged (1000 × g, 10 min). The supernatant (100 μL) was then transferred to insert placed in an autosampler vial, and a 10 μL volume of this was injected onto the HPLC column. Tissue samples were thawed before use, and whole hippocampus, striatum and frontal cortex were weighted and placed in a glass mortar and pestle tissue grinder and homogenized with an appropriate amount of phosphate buffer (pH 7.4) in 1:5 ratio. Afterward, 50 μL of tissue homogenates were transferred to new Eppendorf tubes and spiked with 5 μL of the internal standard working solution. All samples were stored on ice during the preparation process. This was followed by procedures like those described above.\nThe LC/ESI-MS/MS experiments were performed on an Applied Biosystems/MDS Sciex (Concord, Ontario, Canada) API 2000 triple quadrupole mass spectrometer equipped with an electrospray (ESI) ionization interface. This instrument was coupled to an Agilent 1100 (Agilent Technologies, Waldbronn, Germany) LC system. Data acquisition and processing were accomplished using Sciex Analyst 1.4.2 data collection and integration software.\nAn XBridge C18 (2.1 x 30 mm, 3.5 μm) analytical column (Waters, Milford, Massachusetts, USA) was used for compound separation. The temperatures of the column thermostat and the autosampler were set at 25°C and 10°C, respectively. The mobile phase consisted of a mixture of acetonitrile with addition of 0.1% formic acid (solvent A) and water with addition of 0.1% formic acid (solvent B) and was set at a flow rate of 0.6 mL/min. Starting amount of solvent A is 10%, isocratic elution from 0 to 3 min, and then gradient up to 90% of solvent A, and maintained to 10 min, and then gradient down to 10% of solvent A, and maintained to 15 min.\nThe ion source parameters were as follows: ion spray voltage: 5500 V; nebulizer gas (gas 1): 20 psi; turbo gas (gas 2): 25 psi; temperature of the heated nebulizer: 400°C; curtain gas: 40 psi; collision gas: 6 psi. Mass spectra were acquired by SRM with precursor/predominant product ion transitions for each analyte. The mass spectral Q1→Q3 transitions monitored for AZ-853, AZ-861 and for IS (nebivolol), were m/z 453.9→235.1; 504.3→285.1 and 406.2→151.1, respectively. The peak widths of precursor and product ions were set to 0.7 full width half-height. Quantification was done via peak area ratio.\nPharmacokinetic parameters were calculated by a non-compartmental approach from the average concentration values, using Phoenix WinNonlin software (Certara, Princeton, NJ 08540 USA). First order elimination rate constant (λz) was calculated by linear regression of time versus log concentration. Next, the area under the mean serum and tissue concentration versus time curve (AUC0→t) was estimated using the log-linear trapezoidal rule (1), where Ci is the plasma concentration measured at t1.\nAUC0→t=∑i=1n((Ci+Ci+1)/2)∙(ti+1−ti). (1)\nArea under the first-moment curve (AUMC0→t) was estimated by calculation of the total area under the first-moment curve using the Eq (2), where Ci is the plasma concentration measured at t1. AUMC0→t=∑i=1n((ti∙Ci+ti+1∙Ci+1)/2)∙(ti+1−ti). […]", "key": {"[1]": {"conditions": "Swiss albino, mouse, frontal cortex, ip, 0.625 mg/kg, read-out: Concentration, frontal cortex (Mean)"}, "[2]": {"conditions": "Swiss albino, mouse, frontal cortex, ip, 0.625 mg/kg, read-out: Concentration, frontal cortex (individual animals)"}}, "note": "Values joined by “and” are separate entries in the source; they are usually repeats but may differ in a detail not shown here. Equal entries are not always repeated. Where two headings read alike, the source gives them in different places."}
{"smiles": "Cn1c(=O)c2c(nc3n(CCCCN4CCN(c5ccccc5F)CC4)ccn23)n(C)c1=O", "note": "[AZ-853, 8-(4-(4-(2-fluorophenyl)piperazin-1-yl)butyl)-1,3-dimethyl-1H-imidazo[2,1-f]purine-2,4(3H,8H)-dione]", "values": [{"measurement": "t0.5", "result": "ca. 1.5 h"}, {"measurement": "t0.5, frontal cortex", "result": 73.8, "unit": "min"}, {"measurement": "t0.5, hippocampus", "result": 140.8, "unit": "min"}, {"measurement": "t0.5, striatum", "result": 74.3, "unit": "min"}, {"measurement": "Cmax, plasma", "setting": "0.625 mg/kg", "result": 23.1, "unit": "ng/mL"}, {"measurement": "t0.5, plasma", "setting": "0.625 mg/kg", "result": "81 min and 81.6 min"}, {"measurement": "Concentration, frontal cortex (individual animals)", "setting": "15 min, 0.625 mg/kg", "result": "252.14 ng/mL and 309.85 ng/mL and 312.66 ng/mL and 273.19 ng/mL and 294.14 ng/mL"}, {"measurement": "Concentration, hippocampus (individual animals)", "setting": "15 min, 0.625 mg/kg", "result": "298.87 ng/mL and 267.61 ng/mL and 299.52 ng/mL and 245.78 ng/mL and 289.53 ng/mL"}, {"measurement": "Concentration, plasma (individual animals)", "setting": "15 min, 0.625 mg/kg", "result": "13.52 ng/mL and 11.72 ng/mL and 14.74 ng/mL and 12.63 ng/mL and 15.85 ng/mL"}, {"measurement": "Concentration, striatum (individual animals)", "setting": "15 min, 0.625 mg/kg", "result": "445.83 ng/mL and 472.52 ng/mL and 361.97 ng/mL and 346.18 ng/mL and 398.36 ng/mL"}, {"measurement": "Concentration, frontal cortex (individual animals)", "setting": "30 min, 0.625 mg/kg", "result": "130.57 ng/mL and 174.17 ng/mL and 183.87 ng/mL and 124.72 ng/mL and 156.16 ng/mL"}, {"measurement": "Concentration, hippocampus (individual animals)", "setting": "30 min, 0.625 mg/kg", "result": "132.11 ng/mL and 120.56 ng/mL and 144.33 ng/mL and 115.85 ng/mL and 113.92 ng/mL"}, {"measurement": "Concentration, plasma (individual animals)", "setting": "30 min, 0.625 mg/kg", "result": "7.23 ng/mL and 6.19 ng/mL and 8.12 ng/mL and 7.41 ng/mL and 8.48 ng/mL"}, {"measurement": "Concentration, striatum (individual animals)", "setting": "30 min, 0.625 mg/kg", "result": "208.14 ng/mL and 240.54 ng/mL and 302.57 ng/mL and 256.75 ng/mL and 253.77 ng/mL"}, {"measurement": "Concentration, frontal cortex (individual animals)", "setting": "60 min, 0.625 mg/kg", "result": "87.55 ng/mL and 56.45 ng/mL and 81.65 ng/mL and 55.78 ng/mL and 58.24 ng/mL"}, {"measurement": "Concentration, hippocampus (individual animals)", "setting": "60 min, 0.625 mg/kg", "result": "35.33 ng/mL and 56.52 ng/mL and 54.16 ng/mL and 46.72 ng/mL and 33.91 ng/mL"}, {"measurement": "Concentration, plasma (individual animals)", "setting": "60 min, 0.625 mg/kg", "result": "2.33 ng/mL and 1.80 ng/mL and 1.95 ng/mL and 1.94 ng/mL and 1.84 ng/mL and 0.83 ng/mL"}, {"measurement": "Concentration, striatum (individual animals)", "setting": "60 min, 0.625 mg/kg", "result": "49.55 ng/mL and 56.86 ng/mL and 68.93 ng/mL and 73.14 ng/mL and 66.26 ng/mL"}, {"measurement": "Concentration, frontal cortex (individual animals)", "setting": "120 min, 0.625 mg/kg", "result": "32.55 ng/mL and 33.75 ng/mL and 20.15 ng/mL and 30.26 ng/mL and 26.34 ng/mL"}, {"measurement": "Concentration, hippocampus (individual animals)", "setting": "120 min, 0.625 mg/kg", "result": "15.62 ng/mL and 13.22 ng/mL and 11.37 ng/mL and 10.24 ng/mL and 11.13 ng/mL"}, {"measurement": "Concentration, plasma (individual animals)", "setting": "120 min, 0.625 mg/kg", "result": "4.86 ng/mL and 4.58 ng/mL and 4.97 ng/mL and 3.54 ng/mL and 3.31 ng/mL"}, {"measurement": "Concentration, striatum (individual animals)", "setting": "120 min, 0.625 mg/kg", "result": "39.45 ng/mL and 31.62 ng/mL and 38.75 ng/mL and 47.66 ng/mL and 39.13 ng/mL"}, {"measurement": "Concentration, frontal cortex (individual animals)", "setting": "240 min, 0.625 mg/kg", "result": "24.26 ng/mL and 26.65 ng/mL and 19.77 ng/mL and 20.56 ng/mL"}, {"measurement": "Concentration, hippocampus (individual animals)", "setting": "240 min, 0.625 mg/kg", "result": "6.95 ng/mL and 9.12 ng/mL and 10.23 ng/mL and 6.87 ng/mL"}, {"measurement": "Concentration, plasma (individual animals)", "setting": "240 min, 0.625 mg/kg", "result": "0.37 ng/mL and 0.35 ng/mL and 0.45 ng/mL and 0.53 ng/mL and 0.33 ng/mL and 0.26 ng/mL"}, {"measurement": "Concentration, striatum (individual animals)", "setting": "240 min, 0.625 mg/kg", "result": "2.35 ng/mL and 3.41 ng/mL and 6.93 ng/mL and 8.25 ng/mL and 6.34 ng/mL"}, {"measurement": "Kp", "setting": "Swiss albino, mouse, frontal cortex, ip, read-out: Brain structure-to-plasma concentration ratio, frontal cortex (FC/P)", "result": 18.1}, {"measurement": "AUC(0-t)", "setting": "Swiss albino, mouse, frontal cortex, ip, read-out: AUC0→t, frontal cortex (converted)", "result": 321, "unit": "ng·h/mL"}, {"measurement": "MRT", "setting": "Swiss albino, mouse, frontal cortex, ip, read-out: MRT, frontal cortex (converted)", "result": 1.5, "unit": "h"}, {"measurement": "concentration at 5 min", "setting": "[1]", "result": 306, "unit": "ng/mL"}, {"measurement": "concentration at 5 min", "setting": "[2]", "result": 268, "unit": "ng/mL"}, {"measurement": "concentration at 15 min", "setting": "Swiss albino, mouse, frontal cortex, ip, 0.625 mg/kg, 15 min, read-out: Concentration, frontal cortex (Mean)", "result": 293, "unit": "ng/mL"}, {"measurement": "concentration at 15 min", "setting": "Swiss albino, mouse, frontal cortex, ip, 0.625 mg/kg, 15 min, read-out: Concentration, frontal cortex (individual animals)", "result": 318, "unit": "ng/mL"}, {"measurement": "concentration at 30 min", "setting": "Swiss albino, mouse, frontal cortex, ip, 0.625 mg/kg, 30 min, read-out: Concentration, frontal cortex (Mean)", "result": 156, "unit": "ng/mL"}, {"measurement": "concentration at 30 min", "setting": "Swiss albino, mouse, frontal cortex, ip, 0.625 mg/kg, 30 min, read-out: Concentration, frontal cortex (individual animals)", "result": 165, "unit": "ng/mL"}, {"measurement": "concentration at 60 min", "setting": "Swiss albino, mouse, frontal cortex, ip, 0.625 mg/kg, 60 min, read-out: Concentration, frontal cortex (Mean)", "result": 66, "unit": "ng/mL"}, {"measurement": "concentration at 60 min", "setting": "Swiss albino, mouse, frontal cortex, ip, 0.625 mg/kg, 60 min, read-out: Concentration, frontal cortex (individual animals)", "result": 56.3, "unit": "ng/mL"}, {"measurement": "concentration at 120 min", "setting": "Swiss albino, mouse, frontal cortex, ip, 0.625 mg/kg, 120 min, read-out: Concentration, frontal cortex (Mean)", "result": 27.5, "unit": "ng/mL"}, {"measurement": "concentration at 120 min", "setting": "Swiss albino, mouse, frontal cortex, ip, 0.625 mg/kg, 120 min, read-out: Concentration, frontal cortex (individual animals)", "result": 22.2, "unit": "ng/mL"}, {"measurement": "concentration at 240 min", "setting": "Swiss albino, mouse, frontal cortex, ip, 0.625 mg/kg, 240 min, read-out: Concentration, frontal cortex (Mean)", "result": 23.3, "unit": "ng/mL"}, {"measurement": "concentration at 240 min", "setting": "Swiss albino, mouse, frontal cortex, ip, 0.625 mg/kg, 240 min, read-out: Concentration, frontal cortex (individual animals)", "result": 20.8, "unit": "ng/mL"}, {"measurement": "concentration at 480 min", "setting": "[1]", "result": 14.6, "unit": "ng/mL"}, {"measurement": "concentration at 480 min", "setting": "[2]", "result": 18.6, "unit": "ng/mL"}, {"measurement": "Cmax", "setting": "Swiss albino, mouse, frontal cortex, ip, 0.625 mg/kg, read-out: Cmax, frontal cortex", "result": 306, "unit": "ng/g"}, {"measurement": "Tmax", "setting": "Swiss albino, mouse, frontal cortex, ip, 0.625 mg/kg, read-out: tmax, frontal cortex (converted)", "result": 5, "unit": "min"}, {"measurement": "Kp", "setting": "Swiss albino, mouse, hippocampus, ip, read-out: Brain structure-to-plasma concentration ratio, hippocampus (H/P)", "result": 11.9}, {"measurement": "AUC(0-t)", "setting": "Swiss albino, mouse, hippocampus, ip, read-out: AUC0→t, hippocampus (converted)", "result": 210, "unit": "ng·h/mL"}, {"measurement": "MRT", "setting": "Swiss albino, mouse, hippocampus, ip, read-out: MRT, hippocampus (converted)", "result": 1.19, "unit": "h"}, {"measurement": "concentration at 5 min", "setting": "Swiss albino, mouse, hippocampus, ip, 0.625 mg/kg, read-out: Concentration, hippocampus (Mean)", "result": 191, "unit": "ng/mL"}]}
